# Test results as given in article PMC8658016, “Identification of New Compounds with Anticonvulsant and Antinociceptive Properties in a Group of 3-substituted (2,5-dioxo-pyrrolidin-1-yl)(phenyl)-Acetamides” (International Journal of Molecular Sciences, 2021).
# Read-outs that look alike come from different tables or passages of the source.
# Experiments:
# [1] = system: mice; assay: Psychomotor 6 Hz (32 mA) seizure test; format: in vivo, mouse; conditions: mice i.p.; for ED50: Mus musculus, ip, 95% confidence interval in parentheses; for 6 Hz (32 mA) screening: number of mice protected / number of mice tested / protection in the 6 Hz (32 mA) test: 100 mg/kg, 0.5 h
# [2] = in vivo; conditions: male, CD-1, mouse, ip
# [3] = system: mice; assay: Subcutaneous pentylenetetrazole (scPTZ) seizure test; format: in vivo, mouse; conditions: mice i.p.; for scPTZ screening: number of mice protected / number of mice tested / protection in the scPTZ test: 100 mg/kg, 0.5 h; for ED50: Mus musculus, ip, 95% confidence interval in parentheses
# [4] = system: mice; assay: Maximal electroshock seizure (MES) test; format: in vivo, mouse; conditions: mice i.p.; for MES screening: number of mice protected / number of mice tested / protection in the MES test: 100 mg/kg, 0.5 h; for ED50: Mus musculus, ip, 95% confidence interval in parentheses
# [5] = system: mice; conditions: mice i.p., cited from earlier work
# [6] = system: mice; design: method as in PMID 32929733; conditions: mice i.p.; cited from earlier work
# [7] = system: mice; conditions: mice i.p.; cited from earlier work
# [8] = system: mice; conditions: mice i.p.; cited from earlier work; remark: listed apart in the source
# [9] = system: mice; conditions: mice i.p.; cited from earlier work; remark: listed apart in the source
# [10] = system: mice; design: method as in PMID 28934547; conditions: active only in a very high dose; cited from earlier work
# [11] = system: fast voltage-gated sodium currents in rat prefrontal cortex pyramidal neurons; design: method as in PMID 33647745; conditions: 1 µM; p < 0.01, n = 5; cited from earlier work
# [12] = target: T1, TRPV1 (VR1) (h) (Homo sapiens, UniProt Q8NER1); assay: TRPV1 (VR1) functional assay, antagonist effect; format: cell-based; conditions: HEK293, human recombinant HEK-293 cells, read-out: % Inhibition of Control Agonist Response, TRPV1 (VR1) (h) (antagonist effect)
# T1 construct: Cerep Laboratories / Eurofins Panlabs (contract assay)
# [13] = system: Cav1.2 channel (dihydropyridine site, antagonist radioligand); assay: Radioligand binding, Cav1.2 channel (dihydropyridine site); conditions: rat cerebral cortex
# [14] = target: Cav1.2 (h) calcium ion channel (Homo sapiens, UniProt Q13936); assay: Cav1.2 calcium ion channel cell based antagonist calcium flux assay; conditions: HEK293, read-out: % Inhibition of Control Agonist Response, Cav1.2 (h) calcium ion channel cell based antagonist calcium flux assay
# [15] = system: TTX-sensitive Na+ channel; assay: Radioligand binding, TTX-sensitive Na+ channel; conditions: rat cerebral cortex
# T1 sequence (Q8NER1 whole entry): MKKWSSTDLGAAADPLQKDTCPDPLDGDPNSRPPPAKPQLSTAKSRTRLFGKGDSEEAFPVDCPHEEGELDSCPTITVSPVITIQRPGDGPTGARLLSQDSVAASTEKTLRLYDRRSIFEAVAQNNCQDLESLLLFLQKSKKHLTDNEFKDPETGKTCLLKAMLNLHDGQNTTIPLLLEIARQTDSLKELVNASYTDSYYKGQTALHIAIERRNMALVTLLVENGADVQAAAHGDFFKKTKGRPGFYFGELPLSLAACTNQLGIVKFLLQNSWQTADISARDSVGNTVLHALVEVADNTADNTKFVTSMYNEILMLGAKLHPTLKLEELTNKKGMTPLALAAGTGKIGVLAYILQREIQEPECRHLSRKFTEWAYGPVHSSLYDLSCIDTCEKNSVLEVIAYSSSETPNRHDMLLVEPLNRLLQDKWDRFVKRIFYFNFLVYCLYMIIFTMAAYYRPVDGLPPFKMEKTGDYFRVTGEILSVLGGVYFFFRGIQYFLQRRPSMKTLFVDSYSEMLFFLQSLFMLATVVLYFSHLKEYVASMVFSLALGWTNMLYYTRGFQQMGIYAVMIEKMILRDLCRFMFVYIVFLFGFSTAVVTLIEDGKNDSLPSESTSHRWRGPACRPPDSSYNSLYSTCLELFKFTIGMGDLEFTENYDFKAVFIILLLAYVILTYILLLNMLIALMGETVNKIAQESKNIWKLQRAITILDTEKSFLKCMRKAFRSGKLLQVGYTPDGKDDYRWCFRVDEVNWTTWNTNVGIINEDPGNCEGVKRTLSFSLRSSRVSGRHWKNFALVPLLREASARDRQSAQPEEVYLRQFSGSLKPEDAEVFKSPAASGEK
# Chain of Cav1.2 (h) calcium ion channel (Q13936 whole entry): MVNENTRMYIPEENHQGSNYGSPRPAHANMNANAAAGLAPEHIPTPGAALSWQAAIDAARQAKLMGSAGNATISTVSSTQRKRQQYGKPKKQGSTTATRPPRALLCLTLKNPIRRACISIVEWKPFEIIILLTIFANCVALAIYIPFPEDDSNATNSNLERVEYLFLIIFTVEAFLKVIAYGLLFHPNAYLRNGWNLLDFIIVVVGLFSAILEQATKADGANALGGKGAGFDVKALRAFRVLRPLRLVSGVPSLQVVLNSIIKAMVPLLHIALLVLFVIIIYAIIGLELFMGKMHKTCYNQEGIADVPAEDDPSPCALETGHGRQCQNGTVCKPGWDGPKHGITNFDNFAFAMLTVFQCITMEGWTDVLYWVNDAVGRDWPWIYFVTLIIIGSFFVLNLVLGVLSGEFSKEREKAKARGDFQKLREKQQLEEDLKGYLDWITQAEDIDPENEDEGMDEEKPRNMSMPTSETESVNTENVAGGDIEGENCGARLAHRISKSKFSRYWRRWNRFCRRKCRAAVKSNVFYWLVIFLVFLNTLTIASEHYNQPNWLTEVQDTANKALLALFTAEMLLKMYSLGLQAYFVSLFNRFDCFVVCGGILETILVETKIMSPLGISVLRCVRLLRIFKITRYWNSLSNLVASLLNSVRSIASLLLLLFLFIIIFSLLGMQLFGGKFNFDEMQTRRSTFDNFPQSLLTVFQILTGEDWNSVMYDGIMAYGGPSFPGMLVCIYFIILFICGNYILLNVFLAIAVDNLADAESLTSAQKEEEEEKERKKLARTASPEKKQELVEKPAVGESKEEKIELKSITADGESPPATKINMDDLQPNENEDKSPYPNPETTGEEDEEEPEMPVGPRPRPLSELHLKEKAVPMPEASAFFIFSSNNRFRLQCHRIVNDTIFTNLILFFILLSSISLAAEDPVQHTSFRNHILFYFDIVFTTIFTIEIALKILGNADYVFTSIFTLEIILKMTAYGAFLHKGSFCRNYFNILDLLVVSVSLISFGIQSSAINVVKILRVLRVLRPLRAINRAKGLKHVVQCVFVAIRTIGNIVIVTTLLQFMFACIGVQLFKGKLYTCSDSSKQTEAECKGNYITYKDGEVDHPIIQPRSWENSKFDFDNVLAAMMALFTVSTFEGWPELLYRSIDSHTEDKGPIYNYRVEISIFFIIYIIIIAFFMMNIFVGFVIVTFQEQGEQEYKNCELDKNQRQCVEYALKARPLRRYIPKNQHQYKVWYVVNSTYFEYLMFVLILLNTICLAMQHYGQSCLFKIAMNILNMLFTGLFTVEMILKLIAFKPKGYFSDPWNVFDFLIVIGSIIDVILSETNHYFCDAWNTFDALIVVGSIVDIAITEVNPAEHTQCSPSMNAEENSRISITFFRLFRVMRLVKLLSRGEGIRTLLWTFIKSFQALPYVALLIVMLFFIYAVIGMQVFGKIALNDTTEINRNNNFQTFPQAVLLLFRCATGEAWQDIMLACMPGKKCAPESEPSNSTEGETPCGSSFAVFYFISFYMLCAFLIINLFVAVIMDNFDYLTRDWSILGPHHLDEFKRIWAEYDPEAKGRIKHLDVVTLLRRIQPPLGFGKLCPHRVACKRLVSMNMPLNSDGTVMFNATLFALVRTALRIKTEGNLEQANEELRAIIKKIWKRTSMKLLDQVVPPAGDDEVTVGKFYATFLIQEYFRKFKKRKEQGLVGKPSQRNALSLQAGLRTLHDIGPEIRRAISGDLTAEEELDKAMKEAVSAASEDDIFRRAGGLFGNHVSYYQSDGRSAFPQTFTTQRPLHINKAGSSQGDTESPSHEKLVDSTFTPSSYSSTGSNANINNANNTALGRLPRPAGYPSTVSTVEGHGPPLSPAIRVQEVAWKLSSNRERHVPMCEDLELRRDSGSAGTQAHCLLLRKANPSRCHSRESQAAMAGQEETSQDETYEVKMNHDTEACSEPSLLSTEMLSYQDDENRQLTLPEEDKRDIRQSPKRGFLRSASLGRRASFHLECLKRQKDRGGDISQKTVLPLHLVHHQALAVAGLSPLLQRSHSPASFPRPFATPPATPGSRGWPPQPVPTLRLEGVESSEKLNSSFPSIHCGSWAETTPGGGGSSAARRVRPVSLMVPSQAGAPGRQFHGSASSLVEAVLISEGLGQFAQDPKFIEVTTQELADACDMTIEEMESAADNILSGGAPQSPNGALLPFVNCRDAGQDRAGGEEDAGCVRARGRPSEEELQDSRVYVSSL
# Chain of Cav1.2 (h) calcium ion channel (Q08289 whole entry partner): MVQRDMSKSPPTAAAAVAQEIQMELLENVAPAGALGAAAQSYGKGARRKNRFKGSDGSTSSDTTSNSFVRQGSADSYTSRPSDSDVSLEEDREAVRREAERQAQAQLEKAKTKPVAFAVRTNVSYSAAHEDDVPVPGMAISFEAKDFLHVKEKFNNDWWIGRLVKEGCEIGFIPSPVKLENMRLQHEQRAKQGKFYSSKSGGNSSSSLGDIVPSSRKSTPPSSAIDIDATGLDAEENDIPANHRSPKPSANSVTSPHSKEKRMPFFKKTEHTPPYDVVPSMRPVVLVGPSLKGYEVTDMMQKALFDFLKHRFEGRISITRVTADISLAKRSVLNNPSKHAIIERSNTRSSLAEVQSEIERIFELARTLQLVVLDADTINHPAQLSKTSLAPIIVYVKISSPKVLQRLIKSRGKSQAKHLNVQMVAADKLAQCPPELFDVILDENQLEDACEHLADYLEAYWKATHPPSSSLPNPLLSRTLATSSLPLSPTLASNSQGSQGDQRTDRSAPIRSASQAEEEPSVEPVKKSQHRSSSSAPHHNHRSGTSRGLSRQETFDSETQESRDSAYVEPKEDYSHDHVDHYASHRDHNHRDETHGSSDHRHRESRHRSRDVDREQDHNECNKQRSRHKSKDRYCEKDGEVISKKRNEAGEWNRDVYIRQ
# Chain of Cav1.2 (h) calcium ion channel (P54289 25-956 partner limits assumed): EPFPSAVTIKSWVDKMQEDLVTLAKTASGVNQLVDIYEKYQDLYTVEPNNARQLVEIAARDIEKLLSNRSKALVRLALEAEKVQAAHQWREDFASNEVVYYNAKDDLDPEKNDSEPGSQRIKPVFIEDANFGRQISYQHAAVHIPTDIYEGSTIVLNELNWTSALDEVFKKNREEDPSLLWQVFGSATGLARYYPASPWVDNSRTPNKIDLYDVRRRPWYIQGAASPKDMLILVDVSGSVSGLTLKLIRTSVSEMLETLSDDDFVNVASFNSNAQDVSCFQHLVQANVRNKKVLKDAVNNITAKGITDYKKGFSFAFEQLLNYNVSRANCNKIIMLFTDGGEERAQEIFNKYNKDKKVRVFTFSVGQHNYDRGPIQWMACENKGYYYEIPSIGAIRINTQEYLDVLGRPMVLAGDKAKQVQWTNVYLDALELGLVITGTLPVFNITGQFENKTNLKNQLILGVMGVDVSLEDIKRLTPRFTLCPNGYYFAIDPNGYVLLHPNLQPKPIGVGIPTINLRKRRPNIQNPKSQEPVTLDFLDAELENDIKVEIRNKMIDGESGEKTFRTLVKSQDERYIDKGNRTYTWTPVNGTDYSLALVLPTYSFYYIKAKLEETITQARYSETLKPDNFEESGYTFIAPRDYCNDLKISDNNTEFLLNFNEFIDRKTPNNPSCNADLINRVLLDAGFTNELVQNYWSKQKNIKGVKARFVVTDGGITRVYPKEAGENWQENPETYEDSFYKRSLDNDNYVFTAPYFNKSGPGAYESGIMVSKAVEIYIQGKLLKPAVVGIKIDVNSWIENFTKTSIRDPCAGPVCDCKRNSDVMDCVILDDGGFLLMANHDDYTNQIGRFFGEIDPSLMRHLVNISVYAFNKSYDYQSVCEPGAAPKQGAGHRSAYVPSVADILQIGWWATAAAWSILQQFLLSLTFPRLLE
# Chain of Cav1.2 (h) calcium ion channel (P54289 957-1103 partner limits assumed): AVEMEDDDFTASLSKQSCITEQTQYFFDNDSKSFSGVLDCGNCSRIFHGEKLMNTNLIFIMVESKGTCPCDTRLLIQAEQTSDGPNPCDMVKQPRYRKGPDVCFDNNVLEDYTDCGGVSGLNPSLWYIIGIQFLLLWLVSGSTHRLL
SMILES,ED50 [1],6 Hz (32 mA) screening: number of mice protected / number of mice tested [1],TD50 [2],melting point,scPTZ screening: number of mice protected / number of mice tested [3],MES screening: number of mice protected / number of mice tested [4],ED50 [4],protection in the 6 Hz (32 mA) test [1],ED50 [3],also measured
"CN(C)C1CC(=O)N([C@H](C(=O)N2CCN(c3cccc(C(F)(F)F)c3)CC2)c2ccccc2)C1=O.Cl (stereo partly drawn) [(C1-S)-31, 3-Dimethylamino-1-((S)-oxo-1-phenyl-2-(4-(3-(trifluoromethyl)phenyl)-piperazin-1-yl)ethyl)pyrrolidine-2,5-dione hydrochloride]",> 130 mg/kg,2/4,188 mg/kg,169.2 to 170.8 °C,1/4,1/4,,,,
"CC[C@@H](C(N)=O)N1CCCC1=O [LEV, levetiracetam, reference compound]",,,> 500 mg/kg,,,,> 500 mg/kg,,,TD50 (rotarod test) ([5]; Table 2): >500 mg/kg; ED50 6 Hz (44 mA) [6]: >500 mg/kg
"CN(C)C1CC(=O)N([C@@H](C(=O)N2CCN(c3cccc(C(F)(F)F)c3)CC2)c2ccccc2)C1=O.Cl (stereo partly drawn) [(C1-R)-31, 3-Dimethylamino-1-((R)-oxo-1-phenyl-2-(4-(3-(trifluoromethyl)phenyl)-piperazin-1-yl)ethyl)pyrrolidine-2,5-dione hydrochloride]",50.9 mg/kg,3/4,94.9 mg/kg,169.8 to 170.6 °C,3/4,4/4,57.7 mg/kg,75%,65.5 mg/kg,protection in the scPTZ test [3]: 75%; protection in the MES test [4]: 100%
"CCN(CC)C1CC(=O)N(C(C(=O)N2CCN(c3cccc(C(F)(F)F)c3)CC2)c2ccccc2)C1=O.Cl (stereo not drawn) [Compound 15, 3-(Diethylamino)-1-(2-oxo-1-phenyl-2-(4-(3-(trifluoromethyl)phenyl)piperazin-1-yl)ethyl)pyrrolidine-2,5-dione hydrochloride]",80.4 mg/kg,3/4,247 mg/kg,142.2 to 143.1 °C,1/4,4/4,77.5 mg/kg,75%,,protection in the MES test [4]: 100%
O=C(C(c1ccccc1)N1C(=O)CCC1=O)N1CCN(c2cccc(C(F)(F)F)c2)CC1 (stereo not drawn) [I],,,,,,,,,,TD50 (rotarod test) ([5]; Table 2): 195.7 (132.7–288.6) mg/kg; TD50 (rotarod test) [5]: 195.7 (132.7–288.6) mg/kg; ED50 scPTZ [7]: 59.4 (37.5–94.1) mg/kg; ED50 6 Hz (32 mA) [8]: 22.4 (17.4–28.8) mg/kg; ED50 MES [9]: 23.7 (18.4–31.2) mg/kg; ED50 6 Hz (44 mA) [6]: 73.2 (57.4–93.4) mg/kg
"CN(C)C1CC(=O)N(C(C(=O)N2CCN(c3cccc(SC(F)(F)F)c3)CC2)c2ccccc2)C1=O.Cl (stereo not drawn) [Compound 18, 3-Dimethylamino-1-(2-oxo-1-phenyl-2-(4-(3-((trifluoromethyl)thio)phenyl)piperazin-1-yl)ethyl)pyrrolidine-2,5-dione hydrochloride]",,1/4,,170.1 to 171.5 °C,1/4,1/4,,,,
"CCCC(CCC)C(=O)O [VPA, valproic acid, reference compound]",,,,,,,,,239 mg/kg,dose active in the capsaicin test [10]: 200 mg/kg
"Cl.O=C(C(c1ccccc1)N1C(=O)CC(N2CCOCC2)C1=O)N1CCN(c2cccc(C(F)(F)F)c2)CC1 (stereo not drawn) [Compound 16, 3-Morpholino-1-(2-oxo-1-phenyl-2-(4-(3-(trifluoromethyl)phenyl)piperazin-1-yl)ethyl)pyrrolidine-2,5-dione hydrochloride]",,0/4,,146.2 to 147.5 °C,1/4,0/4,,,,
"COC[C@@H](NC(C)=O)C(=O)NCc1ccccc1 [LCS, lacosamide]",,,,,,,,,,ED50 6 Hz (44 mA) [6]: 6.9 (5.4–8.6) mg/kg
O=C([C@@H](c1ccccc1)N1C(=O)CCC1=O)N1CCN(c2cccc(C(F)(F)F)c2)CC1 [II],,,,,,,,,,ED50 scPTZ [7]: 54.8 (43.5–69.1) mg/kg; ED50 6 Hz (32 mA) [8]: 39.2 (31.6–48.6) mg/kg; ED50 MES [9]: 36.0 (31.4–41.2) mg/kg; maximal sodium current amplitude normalized to control (1.0) [11]: 0.75 ± 0.04
"CNC1CC(=O)N(C(C(=O)N2CCN(c3cccc(C(F)(F)F)c3)CC2)c2ccccc2)C1=O.Cl (stereo not drawn) [Compound 13, 3-(Methylamino)-1-(2-oxo-1-phenyl-2-(4-(3-(trifluoromethyl)phenyl)piperazin-1-yl)ethyl)pyrrolidine-2,5-dione hydrochloride]",93.6 mg/kg,2/4,,161.2 to 163.4 °C,2/4,1/4,,50%,85.6 mg/kg,
"CCC1(C)CC(=O)NC1=O (stereo not drawn) [ETX, ethosuximide, reference compound]",> 200 mg/kg,,,,,,,,140 mg/kg,
"CN(C)C1CC(=O)N([C@@H](C(=O)N2CCN(c3cccc(SC(F)(F)F)c3)CC2)c2ccccc2)C1=O.Cl (stereo partly drawn) [(C1-R)-33, 3-Dimethylamino-1-((R)-2-oxo-1-phenyl-2-(4-(3-((trifluoromethyl)thio)phenyl)piperazin-1-yl)ethyl)pyrrolidine-2,5-dione hydrochloride]",,1/4,,173.2 to 174.7 °C,1/4,1/4,,,,
"CN(C)C1CC(=O)N(C(C(=O)N2CCN(c3cccc(OC(F)(F)F)c3)CC2)c2ccccc2)C1=O.Cl (stereo not drawn) [Compound 17, 3-Dimethylamino-1-(2-oxo-1-phenyl-2-(4-(3-(trifluoromethoxy)phenyl)piperazin-1-yl)ethyl)pyrrolidine-2,5-dione hydrochloride]",28.2 mg/kg,2/4,69.7 mg/kg,152.3 to 153.5 °C,3/4,3/4,33.3 mg/kg,50%,31.3 mg/kg,protection in the scPTZ test [3]: 75%; protection in the MES test [4]: at least 75%
"CN(C)C1CC(=O)N([C@@H](C(=O)N2CCN(c3cccc(OC(F)(F)F)c3)CC2)c2ccccc2)C1=O.Cl (stereo partly drawn) [(C1-R)-32, 3-Dimethylamino-1-((R)-2-oxo-1-phenyl-2-(4-(3-(trifluoromethoxy)phenyl)piperazin-1-yl)ethyl)pyrrolidine-2,5-dione hydrochloride]",28.3 mg/kg,3/4,72 mg/kg,164.8 to 165.7 °C,3/4,4/4,26.3 mg/kg,75%,44.9 mg/kg,"inhibition at 10 µM ([12]; 10 µM): 8.5%; inhibition at 50 µM ([12]; 50 µM): 44.6%; % Inhibition of Control-Specific Binding, Cav1.2 channel (dihydropyridine site, antagonist radioligand) ([13]; 10 µM): 18.6%; % Inhibition of Control-Specific Binding, Cav1.2 channel (dihydropyridine site, antagonist radioligand) ([13]; 50 µM): 88.9%; inhibition at 10 µM [14]: 38%; % Inhibition of Control-Specific Binding, TTX-sensitive Na+ channel ([15]; 10 µM): 33.4%; % Inhibition of Control-Specific Binding, TTX-sensitive Na+ channel ([15]; 50 µM): 101.9%; protection in the scPTZ test [3]: 75%; protection in the MES test [4]: 100%"
